Experimental data published in US11236055B2 (Venenum Biodesign, LLC, priority 2016, dated 2022).
pEC50: −log10 of the molar value.

Assays:
[1] = target: T1, mouse TGR5 receptor (Mus musculus, UniProt Q80SS6); test: Mouse TGR5 cAMP production assay (HTRF, Cisbio cAMP HiRange); assay type: cell-based; conditions: HEK293-EBNA cells overexpressing mouse TGR5, HTRF cAMP HiRange; coded A-D
T1 construct: expressed in transfected cells; host or cells: HEK293-EBNA (293 c18, ATCC CRL10852), Hygromycin B selection
T1 sequence (Q80SS6 1-329): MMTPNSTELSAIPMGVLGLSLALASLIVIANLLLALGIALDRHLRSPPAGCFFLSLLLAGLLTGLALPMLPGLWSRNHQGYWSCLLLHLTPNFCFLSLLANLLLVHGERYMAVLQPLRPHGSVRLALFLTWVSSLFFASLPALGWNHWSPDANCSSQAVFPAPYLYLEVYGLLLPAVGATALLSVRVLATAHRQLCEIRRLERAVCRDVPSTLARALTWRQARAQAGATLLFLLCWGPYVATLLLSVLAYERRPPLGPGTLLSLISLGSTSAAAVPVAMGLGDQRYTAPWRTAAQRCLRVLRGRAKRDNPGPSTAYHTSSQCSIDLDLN
Method in brief: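 cAMP read by HTRF competition after 1 h room-temperature compound exposure of mouse TGR5-overexpressing HEK293-EBNA cells. Cells were suspended in serum-free DMEM containing 500 μM IBMX; compounds ran as 12-point half-log dilutions in duplicate; EC50 derived.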

[2] = target: T2, human TGR5 receptor (Homo sapiens, UniProt Q8TDU6); test: Human TGR5 cAMP production assay; assay type: cell-based; conditions: human TGR5, luminescent cAMP assay; coded A-D; read-out: Human TGR5 Lum. cAMP Activity (EC50)
T2 construct: host or cells: CHO-K1 (hTGR5-CHO cells)
T2 sequence (Q8TDU6 1-330): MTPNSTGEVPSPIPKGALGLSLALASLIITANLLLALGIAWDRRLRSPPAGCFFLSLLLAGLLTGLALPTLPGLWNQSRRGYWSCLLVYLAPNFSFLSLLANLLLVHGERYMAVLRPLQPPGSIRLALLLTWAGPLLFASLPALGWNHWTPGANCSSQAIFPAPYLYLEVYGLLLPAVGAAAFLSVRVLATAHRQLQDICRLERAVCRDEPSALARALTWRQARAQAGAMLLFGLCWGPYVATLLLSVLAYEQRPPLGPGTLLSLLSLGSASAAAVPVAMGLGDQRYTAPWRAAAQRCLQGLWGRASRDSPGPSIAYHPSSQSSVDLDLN
Method in brief: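 Intracellular cAMP read by luminescent enzyme-complementation (XS+) after overnight development, following 1 h room-temperature compound treatment of hTGR5-CHO-K1 cells in IBMX plus anti-cAMP antibody. Compounds tested as half-log dilution series; EC50 derived.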

SMILES	pEC50 [1]	pEC50 [2]
Cc1cnccc1-c1cccc([C@H](C)N(CCCC(=O)NCCS(=O)(=O)NCCCC(=O)O)S(=O)(=O)c2ccccc2C(F)(F)F)c1 [Compound 20BK]	> 7.00	> 7.00
Cc1cnccc1-c1cccc([C@H](C)N(CCCCC(=O)NCCS(=O)(=O)NCC(=O)O)S(=O)(=O)c2ccccc2C(F)(F)F)c1 [Compound 20BL, (S) 2-(4-(N-(1-(3-(3-methylpyridin-4-yl)phenyl)ethyl)-2-(trifluoromethyl)phenylsulfonamidopentanamido)ethylsulfonamido)acetic acid]	> 7.00	> 7.00
Cc1cnccc1-c1cccc(C(C)(C)N(CCCC(=O)NCCS(=O)(=O)NCC(=O)O)S(=O)(=O)c2cccc(Cl)c2C)c1 [Compound 20AW, (4-(3-chloro-2-methyl-N-(2-(3-(3-methylpyridin-4-yl)phenyl)propan-2-yl)phenylsulfonamido)-N-butanamidoethylsulfonamido)acetic acid]	> 7.00	> 7.00
Cc1cnccc1-c1cccc(C(C)(C)N(CCCC(=O)O)S(=O)(=O)c2ccccc2C(F)(F)F)c1 [Compound 14, 4-(N-(2-(3-(3-methylpyridin-4-yl)phenyl)propan-2-yl)-2-(trifluoromethyl)phenylsulfonamido)butanoic acid]	> 7.00	> 7.00
Cc1cnccc1-c1cccc(C(C)(C)N(CCCC(=O)NC[C@@H](O)[C@H](O)[C@@H](O)[C@@H](O)CO)S(=O)(=O)c2cccc(Cl)c2C)c1 [Compound 20AF, 4-(3-chloro-2-methyl-N-(2-(3-(3-methylpyridin-4-yl)phenyl)propan-2-yl)phenylsulfonamido)-N-((2R,3S,4S,5S)-2,3,4,5,6-pentahydroxyhexyl)butanamide]	> 7.00	> 7.00
Cc1cnccc1-c1cccc(C(C)(C)N(CCCC(=O)NCCS(=O)(=O)O)S(=O)(=O)c2ccccc2C(F)(F)F)c1 [Compound 20AA, 2-(4-(N-(2-(3-(3-methylpyridin-4-yl)phenyl)propan-2-yl)-2-(trifluoromethyl)phenylsulfonamido)butanamido)ethanesulfonic acid]	> 7.00	> 7.00
CCc1cnccc1-c1cccc(C(C)(C)NS(=O)(=O)c2ccccc2C(F)(F)F)c1 [Compound 5, N-(2-(3-(3-ethylpyridin-4-yl)phenyl)propan-2-yl)-2-(trifluoromethyl)benzenesulfonamide]	> 7.00	> 7.00
CCc1cnccc1-c1cccc([C@H](C)N(CCCC(=O)NCCS(=O)(=O)O)S(=O)(=O)c2ccccc2C(F)(F)F)c1 [Compound 20BF, (S)-2-(4-(N-(1-(3-(3-ethylpyridin-4-yl)phenyl)ethyl)-2-(trifluoromethyl)phenylsulfonamido)butanamido)ethanesulfonic acid]	> 7.00	> 7.00

Continued, values first:

pEC50 [1]	pEC50 [2]	SMILES
> 7.00	> 7.00	Cc1cnccc1-c1cccc([C@H](C)N(CCCC(=O)NCCS(=O)(=O)NCCC(=O)O)S(=O)(=O)c2cccc(Cl)c2C)c1 [Compound 21AL]
> 7.00	> 7.00	Cc1cnccc1-c1cccc([C@H](C)N(CCCCNC(=O)NCS(=O)(=O)O)S(=O)(=O)c2ccccc2C(F)(F)F)c1 [Compound 28AC, (S)-(3-(4-(N-(1-(3-(3-methylpyridin-4-yl)phenyl)ethyl)-2-(trifluoromethyl)phenylsulfonamido)butyl)ureido)methanesulfonic acid]
> 7.00	> 7.00	CCc1cnccc1-c1cccc([C@H](C)N(CCCC(=O)NCCS(=O)(=O)O)S(=O)(=O)c2cccc(Cl)c2C)c1 [Compound 21AQ, (S)-2-(4-(3-chloro-N-(1-(3-(3-ethylpyridin-4-yl)phenyl)ethyl)-2-methylphenylsulfonamido)butanamido)ethanesulfonic acid]
> 7.00	> 7.00	Cc1cnccc1-c1cccc([C@H](C)N(CCCC(=O)NCCS(=O)(=O)NCC(=O)O)S(=O)(=O)c2cccc(Cl)c2C)c1 [Compound 21AN, (S) 2-(3-(4-(3-chloro-2-methyl-N-(1-(3-(3-methylpyridin-4-yl)phenyl)ethyl)phenylsulfonamido)butanamido)ethylsulfonamido)acetic acid]
> 7.00	> 7.00	Cc1cnccc1-c1cccc([C@H](C)N(CCCC(=O)NCCNS(=O)(=O)CCC(=O)O)S(=O)(=O)c2cccc(Cl)c2C)c1 [Compound 26AB]
